We go through 16 compounds from US5591762A, “Benzimidazoles useful as angiotensin-11 antagonists” (Dr. Karl Thomae GmbH, priority 1991, dated 1997).

Molecules are shown by their SMILES.

One assay addresses T1, angiotensin II-receptor (Rattus norvegicus, UniProt P25095).
T1 construct: The tissue (rats lung ) is homogenised in Tris-buffer; from tissue; host or cells: rat lung homogenate (washed 20,000×g pellet)
T1 sequence (P25095 1-359): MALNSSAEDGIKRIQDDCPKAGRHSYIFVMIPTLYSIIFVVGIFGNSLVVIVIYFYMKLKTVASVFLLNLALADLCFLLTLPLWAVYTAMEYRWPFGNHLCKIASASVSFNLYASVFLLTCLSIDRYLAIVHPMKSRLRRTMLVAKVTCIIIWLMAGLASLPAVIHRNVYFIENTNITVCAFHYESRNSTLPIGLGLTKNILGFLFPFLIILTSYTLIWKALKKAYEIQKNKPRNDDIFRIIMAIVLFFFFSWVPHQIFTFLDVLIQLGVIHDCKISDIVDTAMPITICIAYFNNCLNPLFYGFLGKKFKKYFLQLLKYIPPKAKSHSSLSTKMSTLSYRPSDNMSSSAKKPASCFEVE
As to the kind of experiment: Angiotensin II-receptor bonding (binding) with [125I]-angiotensin II on rat lung homogenate. As to conditions: 50 pM [125I]-angiotensin II, 60 min at 37° C., pH 7.40. The protocol:
DESCRIPTION OF METHOD: ANGIOTENSIN II-RECEPTOR BONDING
The tissue (rats lung ) is homogenised in Tris-buffer (50 mMol Tris, 150 mMol NaCl, 5 mMol EDTA, pH 7.40) and centrifuged twice for 20 minutes at 20,000×g. The finished pellets are resuspended in incubating buffer (50 mMol Tris, 5 mMol MgCl2, 0.2% BSA, pH 7.40) 1:75, based on the moist weight of the tissue. Each 0.1 ml of homogenate is incubated for 60 minutes at 37° C. with 50 pM [^125 I]-antiotensin II (NEN, Dreieich, FRG) with increasing concentrations of the test substance in a total volume of 0.25 ml. Incubation is ended by rapid filtration through glass fibre filter mats. The filters are each washed with 4 ml of ice cold buffer (25 mMol Tris, 2.5 mMol MgCl2, 0.1% BSA, pH 7.40). The bound radioactivity is measured using a gamma-counter. The corresponding IC50 value is obtained from the dose-activity curve.

The subject of assay [1] is conscious renally hypertensive rats. As to the kind of experiment: Hypotensive effect in conscious renally hypertensive rats after oral administration. As to conditions: 10 mg/kg. It counts as in vivo, rat. The protocol: In addition, compounds D, E, F, G, H, M and O were tested on conscious renally hypertensive rats for their effect after oral administration using methods known from the literature.

Assay [2] deals with rat model of renovascular hypertension (2-kidney 1-clip rat). As to the kind of experiment: Renovascular hypertension: blood pressure lowering in 2-kidney 1-clip rats (telemetry, oral). It is filed as in vivo. As to conditions: two times daily. The text has this: DESCRIPTION OF METHOD: RENOVASCULAR HYPERTENSION
Blood pressure lowering effects of angiotensin-II antagonists were investigated in a rat model of renovascular hypertension. This model, the 2-kidney 1-clip rat, is characterized by an elevated renin activity (see J. Exper. Med. 59, 347-378 (1934), J. Applied Physiol. 31(1), 142-144 (1971) and Gross D. R. in "Animal Models in Cardiovascular Research: Animal Models of hypertension" Martinus Nijhoff Publishers (1985)). The compounds are given two times daily by oral administration to conscious freely moving rats which have been implanted with a chronic-use pressure transmitter to monitor blood pressure and heart rate continuously (PhysioTel® telemetry device).
Male rats (140-150 g) are anaesthetized with pentobarbitonesodium (50 mg/kg i.p.). The abdominal cavity is opened by a midline incision. A solid silver clip with an internal diameter of 0.20 mm is applied to the left renal artery as close as possible to the aorta. The contralateral kidney is not disturbed. The catheter of a pressure transmitter (TA11PA-C40) is inserted in the abdominal aorta and the transmitter fixed to abdominal musculature. The abdomen is closed with sutures. The animals are allowed to recover for several weeks and housed individually in cages.
After the implantation of the chronic-use device, blood pressure and heart rate are transmitted by telemetry and the signals are received by a RA 1010 General Purpose Receiver (Data Science Int.). Data are acquired with the Dataquest® IV 1.11 System on a Hewlett Packard Vectra ES/12 386 computer.
Compounds are dissolved in 1M HCl or 1M NaOH. To stabilize the solution β-cyclodextrin (1.8 g/v%) is added. The solutions (0.3 and 1 mg/kg/2 ml) are orally given by gavage at 10.00 a.m. and 4.00 p.m..

By IC50 is commonly meant the concentration at which inhibition is half-maximal. A low value points to inhibition by little substance. As for `CCCc1nc2c(C)cc(-c3cn(CC(N)=O)cn3)cc2n1Cc1ccc(-c2ccccc2C(=O)O)cc1` [AA], at angiotensin II-receptor, the IC50 worked out at 3.4 nM.

At angiotensin II-receptor, `CCCc1nc2c(C)cc(-c3cn(CCCN(C)C)cn3)cc2n1Cc1ccc(-c2ccccc2C(=O)O)cc1` [BB] came in with an IC50 of 1.3 nM.

Consider `CCCc1nc2c(C)cc(-c3nc4ccccc4n3C)cc2n1Cc1ccc(-c2ccccc2C(=O)O)cc1` [D], for which the hypotensive effect result in assay [1] was “exhibited a hypotensive effect”. Also, the “Blood pressure lowering activity” value is -37 mmHg in assay [2] (0.3 mg/kg) and -68 mmHg in assay [2] (1.0 mg/kg).

Take `CCCc1nc2c(C)cc(-c3nc4ccccc4n3C)cc2n1Cc1ccc(-c2ccccc2-c2nn[nH]n2)cc1` [E]: the hypotensive effect entry in assay [1] is recorded as “exhibited a hypotensive effect”. The “Blood pressure lowering activity” value in assay [2] (0.3 mg/kg) is reported as -55 mmHg; in assay [2] (1.0 mg/kg), -78 mmHg.

As to `CCCc1nc2c(C)cc(N3Cc4ccccc4C3=O)cc2n1Cc1ccc(-c2ccccc2-c2nn[nH]n2)cc1` [F], the hypotensive effect entry in assay [1] was “exhibited a hypotensive effect”.

As to `CCCc1nc2c(C)cc(N3CCCCS3(=O)=O)cc2n1Cc1ccc(-c2ccccc2-c2nn[nH]n2)cc1` [G], the hypotensive effect result in assay [1] is on record as “exhibited a hypotensive effect”.

`CCCCc1nc2c(C)cc(N3C(=O)C(C)=C(C)C3=O)cc2n1Cc1ccc(-c2ccccc2C(=O)O)cc1` [H]: in assay [1], the hypotensive effect result is on record as “exhibited a hypotensive effect”.

On to `Cc1cc(-c2nc3ccccc3n2C)cc2c1nc(C1CC1)n2Cc1ccc(-c2ccccc2C(=O)O)cc1` [M], for which the hypotensive effect entry in assay [1] is “exhibited a hypotensive effect”.

In the case of `CCCc1nc2c(C)cc(-c3cn4cccnc4n3)cc2n1Cc1ccc(-c2ccccc2-c2nn[nH]n2)cc1` [O], the hypotensive effect result in assay [1] is listed as “exhibited a hypotensive effect”.

Regarding `CCCCc1nc2c(C)cc(-c3nc4ccccc4n3C)cc2n1Cc1ccc(-c2ccccc2-c2nnn[nH]2)cc1` [T], the “Blood pressure lowering activity” value in assay [2] (0.3 mg/kg) is -24 mmHg.

On to `CCCc1nc2c(C)cc(-c3cn4ccccc4n3)cc2n1Cc1ccc(-c2ccccc2-c2nnn[nH]2)cc1` [U], for which, in assay [2] (1.0 mg/kg), the “Blood pressure lowering activity” value is reported as -43 mmHg.

As to `CCCc1nc2c(C)cc(-c3cn(C)cn3)cc2n1Cc1ccc(-c2ccccc2C(=O)O)cc1` [V], the IC50 at angiotensin II-receptor turned out to be 1.2 nM.

On to `CCCc1nc2c(C)cc(-c3cn(C(C)C)cn3)cc2n1Cc1ccc(-c2ccccc2-c2nn[nH]n2)cc1` [W], for which the IC50 on angiotensin II-receptor worked out at 1.5 nM.

`CCCc1nc2c(C)cc(-c3coc(C)n3)cc2n1Cc1ccc(-c2ccccc2C(=O)O)cc1` [X] showed an IC50 on angiotensin II-receptor of 40 nM.

In the case of `CCOc1nc2ccc(-c3cn(C(C)C)cn3)cc2n1Cc1ccc(-c2ccccc2C(=O)O)cc1` [Y], on angiotensin II-receptor, the IC50 was 10 nM.

At angiotensin II-receptor, `CCCc1nc2c(C)cc(-c3cn(C4CCCCCC4)cn3)cc2n1Cc1ccc(-c2ccccc2C(=O)O)cc1` [Z] registered an IC50 of 15 nM.
